Data set [1] has as its system VCAM-1. The data set can be described thus: In vitro VCAM-1 assay: TNF-α stimulated endothelial cells, cell-surface ELISA. The data set is classed as cell-based. The following applies: primary human aortic (HAEC) or pulmonary (HPAEC) endothelial cells, TNF-α 1 ng/ml, approximately 16 hours exposure. The method, then: Cell Culture and compound dosing: Cultured primary human aortic (HAEC) or pulmonary (HPAEC) endothelial cells were obtained from Clonetics, Inc., and were used below passage 9. Cells were seeded in 96 well plates such that they would reach 90–95% confluency by the following day. On the following day the cells were stimulated with TNF-α (1 ng/ml) in the presence or absence of compounds dissolved in DMSO such that the final concentration of DMSO is 0.25% or less. To establish a dose curve for each compound, four concentrations in 2- to 5-fold increments were used. Cells were exposed to TNF-α and compounds for approximately 16 hours. The next day the cells were examined under microscope to score for visual signs of toxicity or cell stress.
Following 16 hr exposure to TNF-α and compound the media was discarded and the cells were washed once with Hanks Balanced Salt Solution (HBSS)/Phosphate buffered saline (PBS) (1:1). Primary antibodies against VCAM-1 (0.25 μg/ml in HBSS/PBS+5% FBS) were added and incubated for 30–60 minutes at 37° C. Cells were washed with HBSS/PBS three times, and secondary antibody Horse Radish Peroxidase (HRP)-conjugated goat anti-mouse IgG (1:500 in HBSS/PBS+5% FBS) were added and incubated for 30 minutes at 37° C. Cells were washed with HBSS/PBS four time and TMB substrate were added and incubated at room temperature in the dark until there was adequate development of blue color. The length of time of incubation was typically 5–15 minutes. 2N sulfuric acid was added to stop the color development and the data was collected by reading the absorbance on a BioRad ELISA plate reader at OD 450 nm. The results are expressed as IC50 values (the concentration (micromolar) of compound required to inhibit 50% of the maximal response of the control sample stimulated by TNF-α only).
In general terms: In an ELISA, binding on a coated surface is turned into a signal by an enzyme label.

A word on the melting point: it is the temperature, or range, at which the solid turns liquid. As to `COC(=O)c1ccc(C(=O)C#Cc2cc(-c3cccs3)c(OC)cc2OC)cc1` [Example 1, 4-[3-(2,4-dimethoxy-5-thiophen-2-yl-phenyl)-propynoyl]-benzoic acid methyl ester], the melting point lay within 198 to 200 °C. In general, IC50 refers to the concentration needed to halve the response being measured. A lower IC50 goes with higher potency. The compound `COC(=O)COc1c(OC)cc(C(=O)C#Cc2cc(-c3cccs3)c(OC)cc2OC)cc1OC` [Example 3, {4-[3-(2,4-Dimethoxy-5-thiophen-2-yl-phenyl)-propynoyl]-2,6-dimethoxy-phenoxy}-acetic acid methyl ester] gave a half-maximal inhibitory concentration (IC50) in data set [1] of less than 5 µM. Take `COc1cc(OC)c(-c2cccs2)cc1C#CC(=O)c1ccc(C(=O)O)cc1` [Example 2, 4-[3-{2,4-Dimethoxy-5-(thiophen-2-yl)-phenyl}propynoyl]-benzoic Acid]: the melting point was 220 °C (dec.). Moreover, the 50% inhibitory concentration (IC50) in data set [1] was less than 5 µM. As to `COc1cc(OC)c(-c2cccs2)cc1C#CC(=O)c1cc(OC)c(OCC(=O)O)c(OC)c1` [Example 4, {4-[3-(2,4-Dimethoxy-5-thiophen-2-yl-phenyl)-propynoyl]-2,6-dimethoxy-phenoxy}-acetic acid], in data set [1], the IC50 is less than 5 µM.

For the origin of these results see patent US7202247B2, “1,3-bis-(substituted-phenyl)-2-propyn-1-ones and their use to treat disorders” (AtheroGenics, Inc., priority 2001, dated 2007).
